Test results as given in patent US7598245B2 (Vertex Pharmaceuticals Incorporated, priority 2003, dated 2009).

Assays:
Type in all cases: biochemical
JAK-3 = molecular target: T1, JAK-3 (Homo sapiens, UniProt P52333); assay: JAK3 inhibition assay (ELISA, Poly (Glu, Ala, Tyr) coated plates); settings: 2 μM ATP
T1 sequence (P52333 1-1124): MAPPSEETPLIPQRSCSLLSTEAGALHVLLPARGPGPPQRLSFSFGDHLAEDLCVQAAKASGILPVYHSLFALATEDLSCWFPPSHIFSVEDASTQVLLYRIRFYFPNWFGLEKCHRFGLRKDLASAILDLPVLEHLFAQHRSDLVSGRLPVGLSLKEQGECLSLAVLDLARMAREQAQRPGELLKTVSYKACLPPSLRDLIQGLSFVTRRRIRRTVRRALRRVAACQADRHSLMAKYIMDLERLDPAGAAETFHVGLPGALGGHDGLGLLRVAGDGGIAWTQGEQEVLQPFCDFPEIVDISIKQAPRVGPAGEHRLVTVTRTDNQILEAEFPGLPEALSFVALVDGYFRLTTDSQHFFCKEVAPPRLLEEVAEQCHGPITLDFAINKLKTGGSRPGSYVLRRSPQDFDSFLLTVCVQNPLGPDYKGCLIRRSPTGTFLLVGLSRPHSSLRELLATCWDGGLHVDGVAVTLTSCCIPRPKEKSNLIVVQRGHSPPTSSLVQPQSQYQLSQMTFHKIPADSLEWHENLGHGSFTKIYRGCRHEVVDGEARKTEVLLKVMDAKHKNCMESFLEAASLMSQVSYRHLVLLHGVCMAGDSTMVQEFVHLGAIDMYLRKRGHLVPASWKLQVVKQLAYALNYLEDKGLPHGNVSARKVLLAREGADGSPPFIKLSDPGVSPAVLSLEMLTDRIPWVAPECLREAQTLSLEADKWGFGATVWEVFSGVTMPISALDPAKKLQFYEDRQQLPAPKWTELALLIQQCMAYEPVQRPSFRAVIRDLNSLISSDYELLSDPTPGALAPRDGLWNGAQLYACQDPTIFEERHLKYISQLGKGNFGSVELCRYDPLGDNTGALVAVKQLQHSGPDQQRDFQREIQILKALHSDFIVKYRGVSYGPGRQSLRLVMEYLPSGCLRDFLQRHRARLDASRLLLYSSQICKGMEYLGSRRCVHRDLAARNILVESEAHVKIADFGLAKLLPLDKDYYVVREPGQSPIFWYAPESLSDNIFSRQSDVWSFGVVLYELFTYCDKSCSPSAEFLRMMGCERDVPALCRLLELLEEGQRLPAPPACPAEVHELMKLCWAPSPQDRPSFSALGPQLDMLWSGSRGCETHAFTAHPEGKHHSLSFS
Procedure: Compound inhibition of JAK was assayed by the method described by G. R. Brown, et al, Bioorg. Med. Chem. Lett. 2000, vol. 10, pp 575-579 in the following manner. Into Maxisorb plates, previously coated at 4° C. with Poly (Glu, Ala, Tyr) 6:3:1 then washed with phosphate buffered saline 0.05% and Tween-(PBST), was added 2 μM ATP, 5 mM MgCl2, and a solution of compound in DMSO. The reaction was started with JAK enzyme and the plates incubated for 60 minutes at 30° C. The plates were then washed with PBST, 100 μL HRP-Conjugated 4G10 antibody was added, and the plate incubated for 90 minutes at 30° C. The plate was again washed with PBST, 100 μL TMB solution is added, and the plates were incubated for another 30 minutes at 30° C. Sulfuric acid (100 μL of 1M) was added to stop the reaction and the plate is read at 450 nm to obtain the optical densities for analysis to determine Ki values.

GSK-3β (AA 1-420) = GSK-3β (AA 1-420) (Homo sapiens, UniProt P49841); assay: Inhibition of GSK-3, coupled enzyme system; settings: 20 μM ATP, 30° C.
Sequence of GSK-3β (AA 1-420) (P49841 whole entry, the tested form may be a part): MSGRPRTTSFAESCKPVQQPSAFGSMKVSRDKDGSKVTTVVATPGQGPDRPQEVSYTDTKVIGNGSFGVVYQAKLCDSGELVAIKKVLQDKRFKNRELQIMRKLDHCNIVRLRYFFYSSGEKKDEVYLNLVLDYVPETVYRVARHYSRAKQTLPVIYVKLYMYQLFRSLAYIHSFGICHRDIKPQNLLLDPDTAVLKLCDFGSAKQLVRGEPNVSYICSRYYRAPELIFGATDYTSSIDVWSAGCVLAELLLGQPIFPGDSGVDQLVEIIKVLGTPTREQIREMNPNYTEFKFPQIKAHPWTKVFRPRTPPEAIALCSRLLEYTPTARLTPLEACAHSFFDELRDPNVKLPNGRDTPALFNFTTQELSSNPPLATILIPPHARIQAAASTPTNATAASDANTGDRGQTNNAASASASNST
Procedure: Compounds are screened for their ability to inhibit GSK-3β (AA 1-420) activity using a standard coupled enzyme system [Fox et al. Protein Sci. 1998, 7, 2249]. Reactions are carried out in a solution containing 100 mM HEPES (pH 7.5), 10 mM MgCl2, 25 mM NaCl, 300 μM NADH, 1 mM DTT and 1.5% DMSO. Final substrate concentrations in the assay are 20 μM ATP (Sigma Chemicals, St Louis, Mo.) and 300 μM peptide (American Peptide, Sunnyvale, Calif.). Reactions are carried out at 30° C. and 20 nM GSK-3β. Final concentrations of the components of the coupled enzyme system are 2.5 mM phosphoenolpyruvate, 300 μM NADH, 30 μg/ml pyruvate kinase and 10 μg/ml lactate dehydrogenase.
An assay stock buffer solution is prepared containing all of the reagents listed above with the exception of ATP and the test compound of interest. The assay stock buffer solution (175 μl) is incubated in a 96 well plate with 5 μl of the test compound of interest at final concentrations spanning 0.002 μM to 30 μM at 30° C. for 10 min. Typically, a 12 point titration is conducted by preparing serial dilutions (from 10 mM compound stocks) with DMSO of the test compounds in daughter plates. The reaction is initiated by the addition of 20 μl of ATP (final concentration 20 μM). Rates of reaction are obtained using a Molecular Devices Spectramax plate reader (Sunnyvale, Calif.) over 10 min at 30° C. The Ki values are determined from the rate data as a function of inhibitor concentration.

CDK-2/Cyclin A = molecular target: T2, CDK-2/Cyclin A (Homo sapiens, UniProt P24941); assay: Inhibition of CDK-2, coupled enzyme assay; settings: 100 μM ATP, 30° C.
T2 construct: 25 nM CDK-2/Cyclin A
Procedure: Compounds are screened for their ability to inhibit CDK-2/Cyclin A using a standard coupled enzyme assay [Fox et al. Protein Sci. 1998, 7, 2249]. Reactions were carried out in 100 mM HEPES (pH 7.5), 10 mM MgCl2, 25 mM NaCl, 1 mM DTT and 1.5% DMSO. Final substrate concentrations in the assay are 100 μM ATP (Sigma chemicals) and 100 μM peptide (American Peptide, Sunnyvale, Calif.). Assays are carried out at 30° C. and 25 nM CDK-2/Cyclin A. Final concentrations of the components of the coupled enzyme system are 2.5 mM phosphoenolpyruvate, 350 μM NADH, 30 μg/ml pyruvate kinase and 10 μg/ml lactate dehydrogenase.
An assay stock buffer solution is prepared containing all of the reagents listed above, with the exception of CDK-2/Cyclin A, DTT and the test compound of interest. 56 μl of the test reaction is placed in a 384 well plate followed by addition of 1 μl of 2 mM DMSO stock containing the test compound (final compound concentration 30 μM). The plate is preincubated for ˜10 minutes at 30° C. and the reaction initiated by addition of 10 μl of enzyme (final concentration 25 nM). Rates of reaction are obtained using a BioRad Ultramark plate reader (Hercules, Calif.) over a 5 minute read time at 30° C. Ki values are determined according to standard methods.

Compound	Ki (JAK-3) [nM]	Ki (GSK-3β (AA 1-420)) [nM]	Ki (CDK-2/Cyclin A) [nM]
CC(=O)N1[C@H](C)CN(c2cc(-n3cnc(Nc4ccc(NC(=O)N(C)C)cc4)n3)ccn2)C[C@@H]1C [Compound I-77, 3-(4-{1-[2-(4-Acetyl-3,5-dimethyl-piperazin-1-yl)-pyridin-4-yl]-1H-[1,2,4]triazol-3-ylamino}-phenyl)-1,1-dimethyl-urea]	10 to 1000	> 1000	> 1000
COC(=O)Nc1ccc(Nc2ncn(-c3ccnc(N4C[C@@H](C)N(C(C)=O)[C@@H](C)C4)c3)n2)cc1 [Compound I-78]	10 to 1000	> 1000	< 500
CC(=O)N1[C@H](C)CN(c2cc(-n3cnc(Nc4ccc(NC(=O)c5cccs5)cc4)n3)ccn2)C[C@@H]1C [Compound I-80]	10 to 1000	> 1000	< 500
CC(=O)N1[C@H](C)CN(c2cc(-n3cnc(Nc4ccc(N)cc4)n3)ccn2)C[C@@H]1C [Compound I-82]	< 10	> 1000	< 500
CC(=O)N1[C@H](C)CN(c2cc(-n3cnc(Nc4ccc(N5CCOCC5)cc4)n3)ccn2)C[C@@H]1C [Compound I-85, 1-(2,6-Dimethyl-4-{4-[3-(4-morpholin-4-yl-phenylamino)-[1,2,4]triazol-1-yl]-pyridin-2-yl}-piperazin-1-yl)-ethanone]	10 to 1000	> 1000	< 500
CCCOC(=O)Nc1ccc(Nc2ncn(-c3ccnc(N4C[C@@H](C)N(C(C)=O)[C@@H](C)C4)c3)n2)cc1 [Compound I-88]	10 to 1000	> 1000	< 500
CC(=O)N1[C@H](C)CN(c2cc(-n3cnc(Nc4ccc(NC(=O)OCC(C)C)cc4)n3)ccn2)C[C@@H]1C [Compound I-90]	10 to 1000	> 1000	500 to 1000
CC(=O)N1[C@H](C)CN(c2cc(-n3cnc(Nc4ccc(N5CCN(S(=O)(=O)c6ccc(C)cc6)CC5)cc4)n3)ccn2)C[C@@H]1C [Compound I-92]	< 10	> 1000	500 to 1000
O=C(Cc1ccccc1)Nc1cc(-n2cnc(Nc3ccccc3)n2)ccn1 [Compound I-96]	> 1000	< 500	< 500
CCNC(=O)Nc1ccc(Nc2ncn(-c3ccnc(N4C[C@@H](C)N(C(C)=O)[C@@H](C)C4)c3)n2)cc1 [Compound I-98, 1-(4-{1-[2-(4-Acetyl-3,5-dimethyl-piperazin-1-yl)-pyridin-4-yl]-1H-[1,2,4]triazol-3-ylamino}-phenyl)-3-ethyl-urea]	< 10	> 1000	< 500

More lines, now with the values ahead:

Ki (JAK-3) [nM]	Ki (GSK-3β (AA 1-420)) [nM]	Ki (CDK-2/Cyclin A) [nM]	Compound
10 to 1000	> 1000	500 to 1000	CCOC(=O)c1ccc(Nc2ncn(-c3ccnc(N4C[C@@H](C)N(C(C)=O)[C@@H](C)C4)c3)n2)cc1 [Compound I-75]
10 to 1000	> 1000	> 1000	CCOC(=O)c1ccc(Nc2ncn(-c3ccnc(N4CCCN(C(C)=O)CC4)c3)n2)cc1 [Compound I-76]
< 10	> 1000	< 500	CC(=O)N1[C@H](C)CN(c2cc(-n3cnc(Nc4ccc(NC(=O)C(F)(F)F)cc4)n3)ccn2)C[C@@H]1C [Compound I-79]
10 to 1000	> 1000	500 to 1000	CC(=O)N1[C@H](C)CN(c2cc(-n3cnc(Nc4ccc(NC(=O)c5ccco5)cc4)n3)ccn2)C[C@@H]1C [Compound I-81, Furan-2-carboxylic acid (4-{1-[2-(4-acetyl-3,5-dimethyl-piperazin-1-yl)-pyridin-4-yl]-1H-[1,2,4]triazol-3-ylamino}-phenyl)-amide]
10 to 1000	> 1000	500 to 1000	CC(=O)N1[C@H](C)CN(c2cc(-n3cnc(Nc4ccc(NC(=O)OC(C)C)cc4)n3)ccn2)C[C@@H]1C [Compound I-89]
10 to 1000	> 1000	500 to 1000	CC(=O)N1[C@H](C)CN(c2cc(-n3cnc(Nc4ccc(NC(=O)OCC(C)(C)C)cc4)n3)ccn2)C[C@@H]1C [Compound I-91]
> 1000	< 500	500 to 1000	O=C(Nc1cc(-n2cnc(Nc3ccccc3)n2)ccn1)C1CCCCC1 [Compound I-93]
10 to 1000	< 500	> 1000	O=C(CC1CCCC1)Nc1cc(-n2cnc(Nc3ccccc3)n2)ccn1 [Compound I-94, 2-Cyclopentyl-N-[4-(3-phenylamino-[1,2,4]triazol-1-yl)-pyridin-2-yl]-acetamide]
> 1000	< 500	500 to 1000	O=C(CCc1ccccc1)Nc1cc(-n2cnc(Nc3ccccc3)n2)ccn1 [Compound I-95]
10 to 1000	> 1000	< 500	CC(=O)N1[C@H](C)CN(c2cc(-n3cnc(Nc4ccc(N5CCN(C(=O)OC(C)(C)C)CC5)cc4)n3)ccn2)C[C@@H]1C [Compound I-97, 4-(4-{1-[2-(4-Acetyl-3,5-dimethyl-piperazin-1-yl)-pyridin-4-yl]-1H-[1,2,4]triazol-3-ylamino}-phenyl)-piperazine-1-carboxylic acid tert-butyl ester]
10 to 1000	> 1000	< 500	CCCNC(=O)Nc1ccc(Nc2ncn(-c3ccnc(N4C[C@@H](C)N(C(C)=O)[C@@H](C)C4)c3)n2)cc1 [Compound I-99]
< 10	> 1000	< 500	CC(=O)N1[C@H](C)CN(c2cc(-n3cnc(Nc4ccc(NC(=O)NC(C)C)cc4)n3)ccn2)C[C@@H]1C [Compound I-100]
10 to 1000	> 1000	500 to 1000	CC(=O)N1[C@H](C)CN(c2cc(-n3cnc(Nc4ccc(NC(=O)NC(C)(C)C)cc4)n3)ccn2)C[C@@H]1C [Compound I-101]
